Measurements as given in patent US20080070868A1, “Novel Thiazole Inhibitors of Fructose 1,6-bisphosphatase” (Metabasis Therapeutics, Inc., priority 2004, published 2008).

Assays:
human liver FBPase = molecular target: T1, human liver FBPase (Homo sapiens, UniProt P09467); assay: Inhibition of human liver FBPase; type: biochemical; conditions: for IC50: purified recombinant human liver FBPase, 0.150 mM fructose 1,6-bisphosphate, 37° C., read-out: IC50 (hlFBPase)
T1 construct: made in house; host or cells: E. coli BL21
T1 sequence (P09467 2-338 limits assumed): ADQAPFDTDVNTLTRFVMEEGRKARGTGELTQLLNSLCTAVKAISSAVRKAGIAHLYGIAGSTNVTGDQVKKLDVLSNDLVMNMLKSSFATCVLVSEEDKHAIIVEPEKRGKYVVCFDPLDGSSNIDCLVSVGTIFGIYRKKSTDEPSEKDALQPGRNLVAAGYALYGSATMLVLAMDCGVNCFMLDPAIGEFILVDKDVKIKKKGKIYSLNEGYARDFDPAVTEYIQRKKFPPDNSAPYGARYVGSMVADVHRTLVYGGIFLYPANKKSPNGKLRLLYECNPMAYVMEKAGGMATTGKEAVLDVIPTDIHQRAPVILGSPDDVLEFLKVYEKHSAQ
Procedure: E. coli strain BL21 transformed with a human liver FBPase-encoding plasmid was obtained from Dr. M. R. El-Maghrabi at the State University of New York at Stony Brook. […] Enzymatic activity was measured spectrophotometrically in reactions that coupled the formation of product (fructose 6-phosphate) to the reduction of dimethylthiazoldiphenyltetrazolium bromide (MTT) via NADP^+ and phenazine methosulfate (PMS), using phosphoglucose isomerase and glucose 6-phosphate dehydrogenase as the coupling enzymes. Reaction mixtures (200 μl) were made up in 96-well microtitre plates, and consisted of 50 mM Tris-HCl, pH 7.4, 100 mM KCl, 5 mM EGTA, 2 mM MgCl2, 0.2 mM NADP, 1 mg/ml BSA, 1 mM MTT, 0.6 mM PMS, 1 unit/ml phosphoglucose isomerase, 2 units/ml glucose 6-phosphate dehydrogenase, and 0.150 mM substrate (fructose 1,6-bisphosphate). Inhibitor concentrations were varied from 0.01 μM to 10 μM. Reactions were started by the addition of 0.002 units of pure hlFBPase, and were monitored for 7 min. at 590 nm in a Molecular Devices Plate Reader (37° C.).

Sprague-Dawley rats = assay: Glucose lowering following oral administration to the fasted, normal rat; type: in vivo; conditions: maximum lowering relative to saline controls, 10 mg/kg oral, 18-h fasted rats
Procedure: Compounds were administered by oral gavage to 18-h fasted, Sprague-Dawley rats (250-300 g, n=3/4/group) at a dose of 10 mg/kg. Phosphonic acids (active moieties) were prepared in deionized water, and the solution adjusted to neutrality with sodium hydroxide. Prodrugs were dissolved in polyethylene glycol (mw 400). Blood samples were taken via tail vein nick immediately prior to dosing and at 1 h intervals thereafter. Blood glucose was analyzed by means of a HemoCue glucose analyzer (HemoCue Inc., Mission Viejo, Calif.). The table below indicates the maximum % glucose lowering achieved relative to control animals dosed with saline.

Nc1nc(-c2ccc(P(=O)(O)O)o2)c(C(=O)c2ccc(Cl)cc2)s1 [Compound 1.9, [5-(2-amino-5-(4-chlorobenzoyl)thiazol-4-yl)furan-2-yl]-phosphonic acid] gave an IC50 (human liver FBPase) of 86 nM.

Work on Nc1nc(-c2ccc(P(=O)(O)O)o2)c(C(=O)c2ccc(N3CCCCC3)cc2)s1 [Compound 1.31, [5-(2-amino-5-(4-piperidinylbenzoyl)thiazol-4-yl)furan-2-yl]-phosphonic acid] yielded an IC50 (human liver FBPase) of 73 nM.

Cc1ccccc1C(=O)c1sc(N)nc1-c1ccc(P(=O)(O)O)o1 [Compound 1.13, [5-(2-amino-5-(2-methylbenzoyl)thiazol-4-yl)furan-2-yl]-phosphonic acid] was tested, and the IC50 (human liver FBPase) was 48 nM.

Work on COc1ccc(C(=O)c2sc(N)nc2-c2ccc(P(=O)(O)O)o2)cc1OC [Compound 1.17, [5-(2-amino-5-(3,4-dimethoxybenzoyl)thiazol-4-yl)furan-2-yl]-phosphonic acid] yielded an IC50 (human liver FBPase) of 94 nM.

Compound CCC(C)C(=O)c1sc(N)nc1-c1ccc(P(=O)(O)O)o1 (stereo not drawn) [Compound 1.33, [5-(2-amino-5-(2-methylbutyryl)thiazol-4-yl)furan-2-yl]-phosphonic acid] has an IC50 (human liver FBPase) of 11 nM.

Compound Nc1nc(-c2ccc(P(=O)(O)O)o2)c(C(=O)c2cccc(Cl)c2)s1 [Compound 1.12, [5-(2-amino-5-(3-chlorobenzoyl)thiazol-4-yl)furan-2-yl]-phosphonic acid] has an IC50 (human liver FBPase) of 73 nM.

For COc1ccccc1C(=O)c1sc(N)nc1-c1ccc(P(=O)(O)O)o1 [Compound 1.14, [5-(2-amino-5-(2-methoxybenzoyl)thiazol-4-yl)furan-2-yl]-phosphonic acid], the IC50 (human liver FBPase) was 118 nM.

Nc1ncnc2c1ncn2[C@@H]1O[C@H](COP(=O)(O)O)[C@@H](O)[C@H]1O [AMP, reference compound] gave an IC50 (human liver FBPase) of 1000 nM.

Nc1nc(-c2ccc(P(=O)(O)O)o2)c(C(=O)c2ccc(-c3ccccc3)cc2)s1 [Compound 1.28, [5-(2-amino-5-(4-phenylbenzoyl)thiazol-4-yl)furan-2-yl]-phosphonic acid] was tested, and the IC50 (human liver FBPase) was 57 nM.

Nc1nc(-c2ccc(P(=O)(O)O)o2)c(C(=O)C2CCCCC2)s1 [Compound 1.6, [5-(2-amino-5-cyclohexylcarbonyl-thiazol-4-yl)furan-2-yl]-phosphonic acid] gave an IC50 (human liver FBPase) of 40 nM.

CCC(CC)C(=O)c1sc(N)nc1-c1ccc(P(=O)(O)O)o1 [Compound 1.23, [5-(2-amino-5-(2-ethylbutyryl)thiazol-4-yl)furan-2-yl]-phosphonic acid] was tested, and the IC50 (human liver FBPase) was 9 nM.

Nc1nc(-c2ccc(P(=O)(O)O)o2)c(C(=O)c2ccc3ccccc3c2)s1 [Compound 1.29, [5-(2-amino-5-(2-naphthylcarbonyl)thiazol-4-yl)furan-2-yl]-phosphonic acid] gave an IC50 (human liver FBPase) of 60 nM.

Compound Cc1cccc(C(=O)c2sc(N)nc2-c2ccc(P(=O)(O)O)o2)c1 [Compound 1.11, [5-(2-amino-5-(3-methylbenzoyl)thiazol-4-yl)furan-2-yl]-phosphonic acid] has an IC50 (human liver FBPase) of 36 nM.

Nc1nc(-c2ccc(P(=O)(O)O)o2)c(C(=O)c2cccc(F)c2)s1 [Compound 1.8, [5-(2-amino-5-(3-fluorobenzoyl)thiazol-4-yl)furan-2-yl]-phosphonic acid] gave an IC50 (human liver FBPase) of 37 nM.

Work on COc1cccc(C(=O)c2sc(N)nc2-c2ccc(P(=O)(O)O)o2)c1 [Compound 1.18, [5-(2-amino-5-(3-methoxybenzoyl)thiazol-4-yl)furan-2-yl]-phosphonic acid] yielded an IC50 (human liver FBPase) of 85 nM.

In the case of CN(C)c1ccc(C(=O)c2sc(N)nc2-c2ccc(P(=O)(O)O)o2)cc1 [Compound 1.32, [5-(2-amino-5-(4-(N,N-dimethylamino)benzoyl)thiazol-4-yl)-furan-2-yl]phosphonic acid], the IC50 (human liver FBPase) is reported as 105 nM.

Nc1nc(-c2ccc(P(=O)(O)O)o2)c(C(=O)c2ccc3c(c2)OCO3)s1 [Compound 1.19, [5-(2-amino-5-(3,4-methylenedioxybenzoyl)thiazol-4-yl)-furan-2-yl]phosphonic acid] was tested, and the IC50 (human liver FBPase) was 53 nM.

Nc1nc(-c2ccc(P(=O)(O)O)o2)c(C(=O)c2ccc(C(F)(F)F)cc2)s1 [Compound 1.24, [5-(2-amino-5-(4-trifluoromethylbenzoyl)thiazol-4-yl)-furan-2-yl]phosphonic acid] was tested, and the IC50 (human liver FBPase) was 99 nM.

Nc1nc(-c2ccc(P(=O)(O)O)o2)c(C(=O)c2cccc(C(F)(F)F)c2)s1 [Compound 1.26, [5-(2-amino-5-(3-trifluoromethylbenzoyl)thiazol-4-yl)-furan-2-yl]phosphonic acid] was tested, and the IC50 (human liver FBPase) was 119 nM.

In the case of CC(C)(C)C(=O)c1sc(N)nc1-c1ccc(P2(=O)OCC[C@H](c3cccc(Cl)c3)O2)o1 (stereo partly drawn) [Compound 7.2, (trans)-2-amino-5-(2,2-dimethylpropionyl)-4-{[5-(4-(3-chlorophenyl)-2-oxo-1,3,2-phosphorinan-2-yl)]furan-2-yl}thiazole], the inhibition in vivo at 10 mg/kg (Sprague-Dawley rats) is reported as 3%.

Work on CCC(CC)C(=O)c1sc(N)nc1-c1ccc(P(=O)(NC(C)(C)C(=O)OC(C)C)NC(C)(C)C(=O)OC(C)C)o1 [Compound 2.25] yielded an inhibition in vivo at 10 mg/kg (Sprague-Dawley rats) of 10%.

For CC(=O)Nc1nc(-c2ccc(P(=O)(O)O)o2)c(C(=O)C(C)(C)C)s1 [N-acetyl-1.1, reference compound], the “rightward shift in potency in the FBPase assay on N-acetylation” value (human liver FBPase; N-acetyl-1.1 relative to 1.1) was 74.5 fold and the IC50 (human liver FBPase) was 2310 nM.

Compound CCOC(=O)[C@H](C)NP(=O)(N[C@@H](C)C(=O)OCC)c1ccc(-c2nc(N)sc2C(=O)C(C)(C)CC)o1 [Compound 2.10, 2-amino-5-(2,2-dimethylbutyryl)-4-{[5-(N,N′-((S)-1-ethoxycarbonyl)-ethyl)phosphonamido]furan-2-yl}thiazole] has an inhibition in vivo at 10 mg/kg (Sprague-Dawley rats) of 12%.

In the case of Cc1ccc(C(=O)c2sc(N)nc2-c2ccc(P(=O)(O)O)o2)cc1 [Compound 1.10, [5-(2-amino-5-(4-methylbenzoyl)thiazol-4-yl)furan-2-yl]-phosphonic acid], the IC50 (human liver FBPase) is reported as 48 nM.

For CCOC(=O)COP(=O)(NC(C)(C)C(=O)OCC)c1ccc(-c2nc(N)sc2C(=O)C(CC)CC)o1 (stereo not drawn) [Compound 5.12], the inhibition in vivo at 10 mg/kg (Sprague-Dawley rats) was 38%.

With CCOC(=O)C(C)(C)NP(=O)(O[C@@H](C)C(=O)OC(C)C)c1ccc(-c2nc(N)sc2C(=O)C(C)(C)C)o1 (stereo partly drawn) [Compound 5.10] the inhibition in vivo at 10 mg/kg (Sprague-Dawley rats) was 4%.

With CCOC(=O)[C@H](C)OP(=O)(NC(C)(C)C(=O)OCC)c1ccc(-c2nc(N)sc2C(=O)C(C)(C)C)o1 (stereo partly drawn) [Compound 5.9] the inhibition in vivo at 10 mg/kg (Sprague-Dawley rats) was 10%.

With Nc1nc(-c2ccc(P(=O)(O)O)o2)c(C(=O)c2ccc(N3CCCC3)c(Cl)c2)s1 [Compound 1.21, [5-(2-amino-5-(3-chloro-4-(1-pyrrolidinyl)benzoyl)-thiazol-4-yl)furan-2-yl]-phosphonic acid] the IC50 (human liver FBPase) was 54 nM.

In the case of CC(C)(C)C(=O)OCOP(=O)(OCOC(=O)C(C)(C)C)c1ccc(-c2nc(N)sc2C(=O)C(C)(C)C)o1 [Compound 8.4, 2-amino-5-(2,2-dimethylpropionyl)-4-{[5-(O,O′-bis(pivalyloxymethyl)phosphono)]furan-2-yl}thiazole], the inhibition in vivo at 10 mg/kg (Sprague-Dawley rats) is reported as 6%.

CCOC(=O)COP(=O)(NC(C)(C)C(=O)OC(C)C)c1ccc(-c2nc(N)sc2C(=O)C(C)(C)C)o1 (stereo not drawn) [Compound 5.7] gave an inhibition in vivo at 10 mg/kg (Sprague-Dawley rats) of 25%.

Compound Nc1nc(-c2ccc(P(=O)(O)O)o2)c(C(=O)C2CCCC2)s1 [Compound 1.30, [5-(2-amino-5-cyclopentylcarbonylthiazol-4-yl)furan-2-yl]-phosphonic acid] has an IC50 (human liver FBPase) of 14 nM.

For COc1ccc(C(=O)c2sc(N)nc2-c2ccc(P(=O)(O)O)o2)cc1 [Compound 1.16, [5-(2-amino-5-(4-methoxybenzoyl)thiazol-4-yl)furan-2-yl]-phosphonic acid], the IC50 (human liver FBPase) was 61 nM.

Compound Cc1ccc(C(=O)c2sc(N)nc2-c2ccc(P(=O)(NC(C)(C)C(=O)OC(C)C)NC(C)(C)C(=O)OC(C)C)o2)cc1 [Compound 2.20] has an inhibition in vivo at 10 mg/kg (Sprague-Dawley rats) of 6%.

With CCOC(=O)[C@H](C)NP(=O)(N[C@@H](C)C(=O)OCC)c1ccc(-c2nc(N)sc2C(=O)c2ccccc2C)o1 [Compound 2.14, 2-amino-5-(2-methylbenzoyl)-4-{[5-(N,N′-((S)-1-ethyl-oxycarbonyl)ethyl)-phosphonamido]furan-2-yl}thiazole] the inhibition in vivo at 10 mg/kg (Sprague-Dawley rats) was 20%.

For CCC(C)(C)C(=O)c1sc(N)nc1-c1ccc(P(=O)(NCC(=O)OC(C)(C)C)NCC(=O)OC(C)(C)C)o1 [Compound 2.12, 2-amino-5-(2,2-dimethylbutyryl)-4-{[5-(N,N′-tert-butyloxycarbonyl-methyl)phosphonamido]furan-2-yl}thiazole], the inhibition in vivo at 10 mg/kg (Sprague-Dawley rats) was 10%.
